{"source": "the kinase profiling compilation of Christmann-Franck et al. (2016)", "assay_in_all_cases": "KINOMEscan competition binding", "key": {"CDK17 (human)": {"molecular_target": "CDK17 (human) (UniProt Q00537)", "conditions": "compound 10.0 µM"}, "CDK3 (human)": {"molecular_target": "CDK3 (human) (UniProt Q00526)", "conditions": "compound 10.0 µM"}, "WEE2 (human)": {"molecular_target": "WEE2 (human) (UniProt P0C1S8)", "conditions": "compound 10.0 µM"}, "CASK (human)": {"molecular_target": "CASK (human) (UniProt O14936)", "conditions": "compound 10.0 µM"}, "MAP3K9 (human)": {"molecular_target": "MAP3K9 (human) (UniProt P80192)", "conditions": "compound 10.0 µM"}, "PIM3 (human)": {"molecular_target": "PIM3 (human) (UniProt Q86V86)", "conditions": "compound 10.0 µM"}, "AURKA (human)": {"molecular_target": "AURKA (human) (UniProt O14965)", "sequence (O14965 whole entry, looked up)": "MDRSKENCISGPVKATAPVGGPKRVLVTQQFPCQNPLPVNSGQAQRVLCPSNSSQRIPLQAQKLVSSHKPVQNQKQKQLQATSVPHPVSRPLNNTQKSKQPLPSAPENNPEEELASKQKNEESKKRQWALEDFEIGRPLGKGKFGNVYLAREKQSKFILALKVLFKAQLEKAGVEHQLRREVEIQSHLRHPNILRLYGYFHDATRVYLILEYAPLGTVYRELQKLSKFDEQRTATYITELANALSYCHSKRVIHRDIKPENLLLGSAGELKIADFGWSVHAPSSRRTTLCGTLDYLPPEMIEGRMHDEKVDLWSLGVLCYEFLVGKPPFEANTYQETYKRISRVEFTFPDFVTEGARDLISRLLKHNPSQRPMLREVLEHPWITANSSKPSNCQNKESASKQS"}, "[1]": {"tested_on": "EGFR (human), P00533 [T790M/L858R]", "conditions": "compound 10.0 µM"}, "BMPR2 (human)": {"molecular_target": "BMPR2 (human) (UniProt Q13873)", "sequence (Q13873 whole entry, looked up)": "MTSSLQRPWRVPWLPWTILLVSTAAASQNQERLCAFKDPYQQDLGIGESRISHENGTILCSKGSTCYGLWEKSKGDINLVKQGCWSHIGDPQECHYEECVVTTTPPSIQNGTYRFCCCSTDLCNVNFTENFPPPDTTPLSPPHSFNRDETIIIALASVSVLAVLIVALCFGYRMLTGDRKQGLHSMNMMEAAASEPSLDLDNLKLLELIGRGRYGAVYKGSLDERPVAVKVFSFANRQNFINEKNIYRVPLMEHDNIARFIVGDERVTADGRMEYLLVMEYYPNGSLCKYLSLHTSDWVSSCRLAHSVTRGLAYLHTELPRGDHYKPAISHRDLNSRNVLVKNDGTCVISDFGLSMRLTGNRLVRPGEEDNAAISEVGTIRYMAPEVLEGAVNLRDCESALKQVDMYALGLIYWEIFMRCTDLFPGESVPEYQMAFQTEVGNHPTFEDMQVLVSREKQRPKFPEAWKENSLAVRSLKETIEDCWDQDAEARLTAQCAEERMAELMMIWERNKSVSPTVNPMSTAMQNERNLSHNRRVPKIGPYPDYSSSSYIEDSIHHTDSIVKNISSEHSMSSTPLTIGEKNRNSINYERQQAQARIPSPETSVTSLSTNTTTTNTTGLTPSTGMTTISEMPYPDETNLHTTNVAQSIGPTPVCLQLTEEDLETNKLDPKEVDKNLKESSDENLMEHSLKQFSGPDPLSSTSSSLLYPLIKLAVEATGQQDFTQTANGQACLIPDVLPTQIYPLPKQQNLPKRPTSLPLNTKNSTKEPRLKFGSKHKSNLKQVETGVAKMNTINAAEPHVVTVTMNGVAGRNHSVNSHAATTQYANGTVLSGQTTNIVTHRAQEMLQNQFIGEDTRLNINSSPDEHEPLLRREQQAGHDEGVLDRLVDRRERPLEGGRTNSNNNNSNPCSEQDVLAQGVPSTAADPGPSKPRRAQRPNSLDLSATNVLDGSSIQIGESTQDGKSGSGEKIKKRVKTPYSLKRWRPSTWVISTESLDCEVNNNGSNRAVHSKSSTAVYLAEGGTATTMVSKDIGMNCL", "conditions": "compound 10.0 µM"}, "BLK (human)": {"molecular_target": "BLK (human) (UniProt P51451)", "sequence (P51451 whole entry, looked up)": "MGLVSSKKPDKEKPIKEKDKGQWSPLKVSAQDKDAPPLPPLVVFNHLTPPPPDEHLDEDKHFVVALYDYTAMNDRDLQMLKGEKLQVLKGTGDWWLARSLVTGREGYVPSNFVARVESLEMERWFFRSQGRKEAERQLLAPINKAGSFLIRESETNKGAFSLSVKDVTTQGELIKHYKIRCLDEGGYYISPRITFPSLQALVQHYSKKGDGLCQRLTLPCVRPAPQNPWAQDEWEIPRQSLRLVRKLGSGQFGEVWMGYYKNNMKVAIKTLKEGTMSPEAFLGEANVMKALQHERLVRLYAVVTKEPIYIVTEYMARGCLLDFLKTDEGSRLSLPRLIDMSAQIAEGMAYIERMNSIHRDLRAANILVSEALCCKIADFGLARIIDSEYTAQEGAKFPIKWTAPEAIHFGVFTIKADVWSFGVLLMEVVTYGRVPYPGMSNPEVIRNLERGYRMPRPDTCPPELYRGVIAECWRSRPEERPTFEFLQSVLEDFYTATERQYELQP", "conditions": "compound 10.0 µM"}, "MYLK2 (human)": {"molecular_target": "MYLK2 (human) (UniProt Q9H1R3)", "sequence (Q9H1R3 whole entry, looked up)": "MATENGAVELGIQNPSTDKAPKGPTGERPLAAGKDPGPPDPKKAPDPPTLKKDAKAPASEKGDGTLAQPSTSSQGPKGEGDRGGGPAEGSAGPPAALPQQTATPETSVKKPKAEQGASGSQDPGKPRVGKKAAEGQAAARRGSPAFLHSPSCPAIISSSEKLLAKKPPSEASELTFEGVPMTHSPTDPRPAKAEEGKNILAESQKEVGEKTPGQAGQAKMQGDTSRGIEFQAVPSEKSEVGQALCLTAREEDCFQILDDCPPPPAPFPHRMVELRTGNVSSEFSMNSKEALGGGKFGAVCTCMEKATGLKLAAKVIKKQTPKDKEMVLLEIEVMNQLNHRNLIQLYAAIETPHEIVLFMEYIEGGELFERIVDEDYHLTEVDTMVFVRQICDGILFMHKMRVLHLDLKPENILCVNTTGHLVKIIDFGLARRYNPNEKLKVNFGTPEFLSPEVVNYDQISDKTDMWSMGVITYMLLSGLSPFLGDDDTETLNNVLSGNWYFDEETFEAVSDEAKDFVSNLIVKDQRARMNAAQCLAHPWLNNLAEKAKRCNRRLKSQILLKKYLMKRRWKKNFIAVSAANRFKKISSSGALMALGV", "conditions": "compound 10.0 µM"}, "MAP2K4 (human)": {"molecular_target": "MAP2K4 (human) (UniProt P45985)", "conditions": "compound 10.0 µM"}, "DDR2 (human)": {"molecular_target": "DDR2 (human) (UniProt Q16832)", "conditions": "compound 10.0 µM"}, "[2]": {"tested_on": "RET (human), P07949 [V804L]", "conditions": "compound 10.0 µM"}, "TTK (human)": {"molecular_target": "TTK (human) (UniProt P33981)", "conditions": "compound 10.0 µM"}, "[3]": {"tested_on": "PIK3CA (human), P42336 [E545K]", "conditions": "compound 10.0 µM"}, "LYN (human)": {"molecular_target": "LYN (human) (UniProt P07948)", "conditions": "compound 10.0 µM"}, "ADCK3 (human)": {"molecular_target": "ADCK3 (human) (UniProt Q8NI60)", "sequence (Q8NI60 whole entry, looked up)": "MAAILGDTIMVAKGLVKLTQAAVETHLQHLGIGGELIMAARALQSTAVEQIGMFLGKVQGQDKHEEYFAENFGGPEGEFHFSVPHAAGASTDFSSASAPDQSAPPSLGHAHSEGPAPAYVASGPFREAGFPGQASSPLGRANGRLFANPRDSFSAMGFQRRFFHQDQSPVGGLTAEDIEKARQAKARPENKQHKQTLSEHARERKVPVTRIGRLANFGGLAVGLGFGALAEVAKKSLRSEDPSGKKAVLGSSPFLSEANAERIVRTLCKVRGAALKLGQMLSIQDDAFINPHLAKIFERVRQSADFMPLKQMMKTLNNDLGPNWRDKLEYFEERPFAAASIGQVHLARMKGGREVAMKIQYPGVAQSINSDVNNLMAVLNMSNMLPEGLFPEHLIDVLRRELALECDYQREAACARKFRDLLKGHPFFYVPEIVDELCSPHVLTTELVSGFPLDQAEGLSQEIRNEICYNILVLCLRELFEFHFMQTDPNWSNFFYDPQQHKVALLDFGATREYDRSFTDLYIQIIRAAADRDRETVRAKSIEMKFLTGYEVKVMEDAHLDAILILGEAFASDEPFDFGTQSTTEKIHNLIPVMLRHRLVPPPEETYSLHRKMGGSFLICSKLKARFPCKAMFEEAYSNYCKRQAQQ", "conditions": "compound 10.0 µM"}, "TESK1 (human)": {"molecular_target": "TESK1 (human) (UniProt Q15569)", "conditions": "compound 10.0 µM"}, "STK16 (human)": {"molecular_target": "STK16 (human) (UniProt O75716)", "conditions": "compound 10.0 µM"}, "STK36 (human)": {"molecular_target": "STK36 (human) (UniProt Q9NRP7)", "conditions": "compound 10.0 µM"}, "[4]": {"tested_on": "KIT (human), P10721 [D816V]", "conditions": "compound 10.0 µM"}, "[5]": {"tested_on": "FLT3 (human), P36888 [R834Q]", "conditions": "compound 10.0 µM"}, "MAP3K13 (human)": {"molecular_target": "MAP3K13 (human) (UniProt O43283)", "conditions": "compound 10.0 µM"}, "SNRK (human)": {"molecular_target": "SNRK (human) (UniProt Q9NRH2)", "sequence (Q9NRH2 whole entry, looked up)": "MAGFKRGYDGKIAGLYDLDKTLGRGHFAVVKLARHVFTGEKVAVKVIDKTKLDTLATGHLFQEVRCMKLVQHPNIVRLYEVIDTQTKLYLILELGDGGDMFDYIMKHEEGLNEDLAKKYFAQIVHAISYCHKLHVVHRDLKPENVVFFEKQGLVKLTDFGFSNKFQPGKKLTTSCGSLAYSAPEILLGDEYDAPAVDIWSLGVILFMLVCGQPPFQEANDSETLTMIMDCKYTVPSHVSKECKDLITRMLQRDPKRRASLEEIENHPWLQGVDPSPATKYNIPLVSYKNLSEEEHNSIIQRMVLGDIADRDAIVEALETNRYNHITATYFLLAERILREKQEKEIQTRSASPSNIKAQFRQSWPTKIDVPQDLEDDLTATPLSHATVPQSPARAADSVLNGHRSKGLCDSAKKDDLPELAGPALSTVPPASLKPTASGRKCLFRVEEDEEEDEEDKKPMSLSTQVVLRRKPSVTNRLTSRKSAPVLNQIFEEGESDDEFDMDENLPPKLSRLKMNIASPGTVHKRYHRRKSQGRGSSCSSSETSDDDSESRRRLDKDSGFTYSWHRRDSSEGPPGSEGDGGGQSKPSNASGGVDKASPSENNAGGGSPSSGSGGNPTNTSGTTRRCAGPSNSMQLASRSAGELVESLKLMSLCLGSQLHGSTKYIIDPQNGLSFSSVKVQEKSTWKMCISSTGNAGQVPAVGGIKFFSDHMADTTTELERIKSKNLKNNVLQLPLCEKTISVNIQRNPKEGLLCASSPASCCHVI", "conditions": "compound 10.0 µM"}, "[6]": {"tested_on": "MET (human), P08581 [Y1235D]", "conditions": "compound 10.0 µM"}, "NEK4 (human)": {"molecular_target": "NEK4 (human) (UniProt P51957)", "conditions": "compound 10.0 µM"}, "RAF1 (human)": {"molecular_target": "RAF1 (human) (UniProt P04049)", "conditions": "compound 10.0 µM"}, "STK38L (human)": {"molecular_target": "STK38L (human) (UniProt Q9Y2H1)", "conditions": "compound 10.0 µM"}, "PIK3C2B (human)": {"molecular_target": "PIK3C2B (human) (UniProt O00750)", "conditions": "compound 10.0 µM"}, "TAOK3 (human)": {"molecular_target": "TAOK3 (human) (UniProt Q9H2K8)", "conditions": "compound 10.0 µM"}, "TSSK1B (human)": {"molecular_target": "TSSK1B (human) (UniProt Q9BXA7)", "sequence (Q9BXA7 whole entry, looked up)": "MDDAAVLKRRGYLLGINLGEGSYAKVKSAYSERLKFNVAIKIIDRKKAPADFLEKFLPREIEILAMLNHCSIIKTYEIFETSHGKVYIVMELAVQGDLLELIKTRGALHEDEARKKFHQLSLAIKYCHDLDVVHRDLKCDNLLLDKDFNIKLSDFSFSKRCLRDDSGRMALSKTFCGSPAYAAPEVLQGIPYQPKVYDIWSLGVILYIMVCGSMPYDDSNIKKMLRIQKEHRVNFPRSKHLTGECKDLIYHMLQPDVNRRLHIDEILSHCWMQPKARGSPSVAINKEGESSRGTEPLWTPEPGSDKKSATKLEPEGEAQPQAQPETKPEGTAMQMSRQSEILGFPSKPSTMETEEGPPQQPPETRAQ", "conditions": "compound 10.0 µM"}, "CSNK1G1 (human)": {"molecular_target": "CSNK1G1 (human) (UniProt Q9HCP0)", "conditions": "compound 10.0 µM"}, "EPHB6 (human)": {"molecular_target": "EPHB6 (human) (UniProt O15197)", "conditions": "compound 10.0 µM"}, "MAP3K3 (human)": {"molecular_target": "MAP3K3 (human) (UniProt Q99759)", "conditions": "compound 10.0 µM"}, "STK38 (human)": {"molecular_target": "STK38 (human) (UniProt Q15208)", "conditions": "compound 10.0 µM"}, "[7]": {"tested_on": "EGFR (human), P00533 [A750P; 747-749 del]", "conditions": "compound 10.0 µM"}, "[8]": {"tested_on": "EGFR (human), P00533 [746-750 del]", "conditions": "compound 10.0 µM"}, "KIT (human)": {"molecular_target": "KIT (human) (UniProt P10721)", "conditions": "compound 10.0 µM"}, "STK17A (human)": {"molecular_target": "STK17A (human) (UniProt Q9UEE5)", "sequence (Q9UEE5 whole entry, looked up)": "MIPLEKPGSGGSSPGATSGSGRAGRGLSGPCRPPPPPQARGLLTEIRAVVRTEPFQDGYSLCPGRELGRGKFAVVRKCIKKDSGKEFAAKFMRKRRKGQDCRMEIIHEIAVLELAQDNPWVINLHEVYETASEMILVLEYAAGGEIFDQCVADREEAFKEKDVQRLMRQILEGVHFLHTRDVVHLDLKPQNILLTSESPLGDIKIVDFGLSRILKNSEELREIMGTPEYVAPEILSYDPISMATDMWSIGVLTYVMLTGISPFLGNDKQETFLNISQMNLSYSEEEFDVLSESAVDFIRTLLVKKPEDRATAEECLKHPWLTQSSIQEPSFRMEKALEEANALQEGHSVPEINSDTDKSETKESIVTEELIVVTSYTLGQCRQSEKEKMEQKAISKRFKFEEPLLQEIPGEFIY", "conditions": "compound 10.0 µM"}, "NEK1 (human)": {"molecular_target": "NEK1 (human) (UniProt Q96PY6)", "conditions": "compound 10.0 µM"}}, "note": "pKd: −log10 of the molar value."}
{"smiles": "COc1cc(C(=O)N2CCC(N3CCN(C)CC3)CC2)ccc1Nc1ncc2c(n1)N(C)c1ccccc1C(=O)N2C", "values": [{"measurement": "residual activity", "setting": "CDK17 (human)", "value": 83, "unit": "%"}, {"measurement": "residual activity", "setting": "CDK3 (human)", "value": 100, "unit": "%"}, {"measurement": "kinase still bound, per cent of control", "setting": "WEE2 (human)", "value": 100, "unit": "%"}, {"measurement": "kinase still bound, per cent of control", "setting": "CASK (human)", "value": 85, "unit": "%"}, {"measurement": "kinase still bound, per cent of control", "setting": "MAP3K9 (human)", "value": 93, "unit": "%"}, {"measurement": "kinase still bound, per cent of control", "setting": "PIM3 (human)", "value": 88, "unit": "%"}, {"measurement": "pKd", "setting": "AURKA (human)", "value": 5.80}, {"measurement": "kinase still bound, per cent of control", "setting": "AURKA (human); compound 10.0 µM", "value": 1.2, "unit": "%"}, {"measurement": "kinase still bound, per cent of control", "setting": "[1]", "value": 84, "unit": "%"}, {"measurement": "kinase still bound, per cent of control", "setting": "BMPR2 (human)", "value": 100, "unit": "%"}, {"measurement": "kinase still bound, per cent of control", "setting": "BLK (human)", "value": 97, "unit": "%"}, {"measurement": "kinase still bound, per cent of control", "setting": "MYLK2 (human)", "value": 98, "unit": "%"}, {"measurement": "kinase still bound, per cent of control", "setting": "MAP2K4 (human)", "value": 100, "unit": "%"}, {"measurement": "kinase still bound, per cent of control", "setting": "DDR2 (human)", "value": 100, "unit": "%"}, {"measurement": "kinase still bound, per cent of control", "setting": "[2]", "value": 89, "unit": "%"}, {"measurement": "kinase still bound, per cent of control", "setting": "TTK (human)", "value": 28, "unit": "%"}, {"measurement": "kinase still bound, per cent of control", "setting": "[3]", "value": 100, "unit": "%"}, {"measurement": "kinase still bound, per cent of control", "setting": "LYN (human)", "value": 100, "unit": "%"}, {"measurement": "kinase still bound, per cent of control", "setting": "ADCK3 (human)", "value": 71, "unit": "%"}, {"measurement": "kinase still bound, per cent of control", "setting": "TESK1 (human)", "value": 82, "unit": "%"}, {"measurement": "kinase still bound, per cent of control", "setting": "STK16 (human)", "value": 62, "unit": "%"}, {"measurement": "kinase still bound, per cent of control", "setting": "STK36 (human)", "value": 97, "unit": "%"}, {"measurement": "kinase still bound, per cent of control", "setting": "[4]", "value": 72, "unit": "%"}, {"measurement": "kinase still bound, per cent of control", "setting": "[5]", "value": 100, "unit": "%"}, {"measurement": "kinase still bound, per cent of control", "setting": "MAP3K13 (human)", "value": 100, "unit": "%"}, {"measurement": "kinase still bound, per cent of control", "setting": "SNRK (human)", "value": 94, "unit": "%"}, {"measurement": "kinase still bound, per cent of control", "setting": "[6]", "value": 100, "unit": "%"}, {"measurement": "kinase still bound, per cent of control", "setting": "NEK4 (human)", "value": 95, "unit": "%"}, {"measurement": "kinase still bound, per cent of control", "setting": "RAF1 (human)", "value": 100, "unit": "%"}, {"measurement": "kinase still bound, per cent of control", "setting": "STK38L (human)", "value": 100, "unit": "%"}, {"measurement": "kinase still bound, per cent of control", "setting": "PIK3C2B (human)", "value": 100, "unit": "%"}, {"measurement": "kinase still bound, per cent of control", "setting": "TAOK3 (human)", "value": 24, "unit": "%"}, {"measurement": "kinase still bound, per cent of control", "setting": "TSSK1B (human)", "value": 60, "unit": "%"}, {"measurement": "kinase still bound, per cent of control", "setting": "CSNK1G1 (human)", "value": 100, "unit": "%"}, {"measurement": "kinase still bound, per cent of control", "setting": "EPHB6 (human)", "value": 31, "unit": "%"}, {"measurement": "kinase still bound, per cent of control", "setting": "MAP3K3 (human)", "value": 97, "unit": "%"}, {"measurement": "kinase still bound, per cent of control", "setting": "STK38 (human)", "value": 96, "unit": "%"}, {"measurement": "kinase still bound, per cent of control", "setting": "[7]", "value": 78, "unit": "%"}, {"measurement": "kinase still bound, per cent of control", "setting": "[8]", "value": 72, "unit": "%"}, {"measurement": "kinase still bound, per cent of control", "setting": "KIT (human)", "value": 100, "unit": "%"}, {"measurement": "kinase still bound, per cent of control", "setting": "STK17A (human)", "value": 100, "unit": "%"}, {"measurement": "kinase still bound, per cent of control", "setting": "NEK1 (human)", "value": 83, "unit": "%"}]}
